What was measured:
Type in all cases: in vivo
[1] = system: Echinochloa crus-galli var. formosensis; assay: Test Example 2: herbicidal effect test by application during growth period of paddy rice; settings: Echinochloa crus-galli; 120 g per 10 ares; applied seven days after sowing, flooded pots; 14 days after application; read-out: weed inhibition rate
How it was run: (§1)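 Steps: puddle fertilized paddy soil; sow 30 seeds of each weed at 0–1 cm; flood to roughly 3 cm and keep in a glasshouse; at day 7 drop in diluted emulsifiable concentrate (120 g a.i. per 10 ares); score inhibition (%) 14 days later, two replicates.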

[2] = system: Echinochloa crus-galli; assay: Test Example 8: herbicidal effect test by stem and leaf treatment in upland field (low dose); settings: Echinochloa crus-galli; 7.5 g per 10 ares; sprayed seven days after sowing, upland soil; 14 days after application; read-out: weed inhibition rate
[3] = system: Digitaria ciliaris; assay: as above; settings: Digitaria ciliaris; 7.5 g per 10 ares; sprayed seven days after sowing, upland soil; 14 days after application; read-out: weed inhibition rate
[4] = system: Monochoria vaginalis; assay: Test Example 1: herbicidal effect test by soil application in paddy rice; settings: Pontederia vaginalis, soil, 336 h; 120 g active ingredient per 10 ares; applied immediately after sowing, flooded pots; 14 days after application; read-out: weed inhibition rate
How it was run: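 Pre-emergence test in puddled, flooded paddy soil (about 3 cm water), 30 seeds per weed sown at 0–1 cm depth in a glass greenhouse. Emulsifiable concentrate diluted in water and dropped onto the pots straight after sowing at 120 g a.i. per 10 ares. Weed inhibition (%) scored at 14 days, in duplicate.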

[5] = system: Echinochloa crus-galli; assay: Test Example 3: herbicidal effect test by soil application in upland field; settings: Echinochloa crus-galli, 120 g per 10 ares, sprayed one day after sowing, 14 days after application, read-out: weed inhibition rate
How it was run: (§2)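 Pre-emergence test: seeds mixed into top 1 cm of alluvial loam upland soil in pots; emulsifiable concentrate diluted in water sprayed on soil one day after sowing at 100 L/10 a, 120 g a.i./10 a. Weed inhibition rate (%) scored at 14 days, in duplicate.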

[6] = system: Chenopodium album; assay: as above; settings: 120 g per 10 ares, sprayed one day after sowing, 14 days after application, read-out: weed inhibition rate
How it was run: as §2

[7] = system: Digitaria ciliaris; assay: as above; settings: Digitaria ciliaris, 120 g per 10 ares, sprayed one day after sowing, 14 days after application, read-out: weed inhibition rate
How it was run: as §2

[8] = system: Scirpus juncoides; assay: Test Example 2: herbicidal effect test by application during growth period of paddy rice; settings: Schoenoplectiella juncoides; 120 g per 10 ares; applied seven days after sowing, flooded pots; 14 days after application; read-out: weed inhibition rate
How it was run: as §1

[9] = system: Monochoria vaginalis; assay: as above; settings: Pontederia vaginalis; 120 g per 10 ares; applied seven days after sowing, flooded pots; 14 days after application; read-out: weed inhibition rate
How it was run: as §1

[10] = system: Amaranthus viridis; assay: Test Example 3: herbicidal effect test by soil application in upland field; settings: Amaranthus viridis, 120 g per 10 ares, sprayed one day after sowing, 14 days after application, read-out: weed inhibition rate
How it was run: as §2

[11] = system: Scirpus juncoides; assay: Test Example 6: herbicidal effect test by application during growth period of paddy rice (low dose); settings: Schoenoplectiella juncoides; 7.5 g per 10 ares; applied seven days after sowing, flooded pots; 14 days after application; read-out: weed inhibition rate
How it was run: (§3)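 Low-dose water application, 7.5 g a.i. per 10 ares, given by dropper into flooded pots (about 3 cm depth) 7 days after sowing of 30 weed seeds each at 0–1 cm. Evaluation of inhibition (%) took place 14 days later, duplicate per rate.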

[12] = system: Monochoria vaginalis; assay: as above; settings: Pontederia vaginalis; 7.5 g per 10 ares; applied seven days after sowing, flooded pots; 14 days after application; read-out: weed inhibition rate
How it was run: as §3

CCC1C[C@]2(C)O[C@@]1(C(C)C)C[C@H]2OCc1ccccc1F (stereo partly drawn) [1-126, (1R,4S,5R)-2-ethyl-5-[(2-fluorobenzyl)oxy]-1-isopropyl-4-methyl-7-oxabicyclo[2.2.1]heptane]
≥ 80%: inhibition at 1200 g/ha [1] | inhibition at 75 g/ha [2] | inhibition at 75 g/ha [3] | pest or weed control at 1200 g/ha [4] | inhibition at 1200 g/ha [5] | inhibition at 1200 g/ha [6] | inhibition at 1200 g/ha [7]

CC(C)[C@]12C[C@@H](OCc3ccccc3Cl)[C@](C)(CC1=O)O2 [2-11, (1R,4S,5R)-5-((2-chlorobenzyl)oxy)-1-isopropyl-4-methyl-7-oxabicyclo[2.2.1]heptan-2-one]
≥ 80%: inhibition at 1200 g/ha [8] | inhibition at 1200 g/ha [1] | inhibition at 1200 g/ha [9] | inhibition at 75 g/ha [2] | inhibition at 75 g/ha [3] | inhibition at 1200 g/ha [5] | inhibition at 1200 g/ha [6] | inhibition at 1200 g/ha [7] | inhibition at 1200 g/ha [10]

CCC1C[C@]2(C)O[C@@]1(C(C)C)C[C@H]2OCc1ccccc1C (stereo partly drawn) [1-123, (1R,4S,5R)-2-ethyl-1-isopropyl-4-methyl-5-((2-methylbenzyl)oxy)-7-oxabicyclo[2.2.1]heptane]
≥ 80%: inhibition at 1200 g/ha [1] | inhibition at 75 g/ha [2] | inhibition at 75 g/ha [3] | pest or weed control at 1200 g/ha [4] | inhibition at 1200 g/ha [5] | inhibition at 1200 g/ha [6] | inhibition at 1200 g/ha [7]

CC(C)[C@]12C[C@@H](OCc3ccc(F)cc3)[C@](C)(CC1=O)O2 [2-349, (1R,4S,5R)-5-((4-fluorobenzyl)oxy)-1-isopropyl-4-methyl-7-oxabicyclo[2.2.1]heptan-2-one]
≥ 80%: inhibition at 1200 g/ha [1] | inhibition at 1200 g/ha [9] | inhibition at 75 g/ha [2] | inhibition at 75 g/ha [3] | pest or weed control at 1200 g/ha [4] | inhibition at 1200 g/ha [5] | inhibition at 1200 g/ha [6] | inhibition at 1200 g/ha [7] | inhibition at 1200 g/ha [10]

Cc1cccc(F)c1CO[C@@H]1C[C@]2(C(C)C)O[C@@]1(C)CC2=O [2-353, (1R,4S,5R)-5-((2-fluoro-6-methylbenzyl)oxy)-1-isopropyl-4-methyl-7-oxabicyclo[2.2.1]heptan-2-one]
≥ 80%: inhibition at 1200 g/ha [8] | inhibition at 1200 g/ha [1] | inhibition at 1200 g/ha [9] | inhibition at 75 g/ha [2] | inhibition at 75 g/ha [3] | pest or weed control at 1200 g/ha [4] | inhibition at 75 g/ha [11] | inhibition at 75 g/ha [12] | inhibition at 1200 g/ha [5] | inhibition at 1200 g/ha [7]

Cc1ccccc1CO[C@@H]1C[C@]2(C(C)C)O[C@@]1(C)C[C@@H]2O [1-24, (1R,2S,4S,5R)-1-isopropyl-4-methyl-5-((2-methylbenzyl)oxy)-7-oxabicyclo[2.2.1]heptan-2-ol]
≥ 80%: inhibition at 1200 g/ha [8] | inhibition at 1200 g/ha [1] | inhibition at 1200 g/ha [9] | inhibition at 75 g/ha [2] | inhibition at 75 g/ha [3] | pest or weed control at 1200 g/ha [4] | inhibition at 75 g/ha [11] | inhibition at 75 g/ha [12] | inhibition at 1200 g/ha [5] | inhibition at 1200 g/ha [7]

CC(C)[C@]12C[C@@H](OCc3c(F)cccc3Br)[C@](C)(CC1=O)O2 [2-355, (1R,4S,5R)-5-((2-bromo-6-fluorobenzyl)oxy)-1-isopropyl-4-methyl-7-oxabicyclo[2.2.1]heptan-2-one]
≥ 80%: inhibition at 1200 g/ha [8] | inhibition at 1200 g/ha [1] | inhibition at 1200 g/ha [9] | inhibition at 75 g/ha [2] | inhibition at 75 g/ha [3] | pest or weed control at 1200 g/ha [4] | inhibition at 75 g/ha [11] | inhibition at 75 g/ha [12] | inhibition at 1200 g/ha [5] | inhibition at 1200 g/ha [7]

CC(C)[C@]12C[C@@H](OCc3c(F)cccc3F)[C@](C)(CC1=O)O2 [2-20, (1R,4S,5R)-5-((2,6-difluorobenzyl)oxy)-1-isopropyl-4-methyl-7-oxabicyclo[2.2.1]heptan-2-one]
≥ 80%: inhibition at 1200 g/ha [8] | inhibition at 1200 g/ha [1] | inhibition at 1200 g/ha [9] | inhibition at 75 g/ha [2] | inhibition at 75 g/ha [3] | pest or weed control at 1200 g/ha [4] | inhibition at 1200 g/ha [5] | inhibition at 1200 g/ha [6] | inhibition at 1200 g/ha [7] | inhibition at 1200 g/ha [10]

From EP4707280A1, “1,4-CINEOLE DERIVATIVE AND INTERMEDIATE THEREOF, HERBICIDE CONTAINING SAID DERIVATIVE AS ACTIVE INGREDIENT, METHOD FOR USING HERBICIDE, AND METHOD FOR PREPARING AGROCHEMICAL COMPOSITION” (HOKKO CHEMICAL INDUSTRY CO., LTD., priority 2023, dated 2024)
